Assay results as given in paper PMC12618397 (Clinical Pharmacokinetics, 2025).
Like-named read-outs stand apart in the source and are kept apart here.

Columns and labels:
[1] = format: in vivo, humans; details: final model
plasma protein = details: cited from earlier work
[2] = cited from earlier work
OATP1B = details: oral glyburide 1.25 mg, i.v. infusion of 600 mg rifampicin, over 24 h; cited from earlier work

SMILES	clearance CL=VB×ke [1] [L/h]	kBP (transfer blood to pancreas) [1] [h⁻¹]	kBS (transfer blood to spleen) [1] [h⁻¹]	kPB (transfer pancreas to blood) [1] [h⁻¹]	kSB (transfer spleen to blood) [1] [h⁻¹]	kL1B (exchange rate liver to blood) ([1]; without rifampicin) [h⁻^1]	binding to plasma protein (plasma protein) [%]	volume of distribution outside central compartment (previous estimates) ([2]; 95% CI 1.3–3.2 L derived from reported estimates) [L]	central volume of distribution ([2]; Rydberg et al.) [L]	elimination rate ([2]; Rydberg et al.) [h⁻^1]	central volume of distribution ([2]; traditional PK modeling, blood samples) [L]	increase of plasma AUC vs baseline (OATP1B) [%]
COc1ccc(Cl)cc1C(=O)NCCc1ccc(S(=O)(=O)NC(=O)NC2CCCCC2)cc1 [[^11C]glyburide]	2.84	5.9	5.9	138	131	20	> 99	–	–	–	–	–
COc1ccc(Cl)cc1C(=O)NCCc1ccc(S(=O)(=O)NC(=O)NC2CCCCC2)cc1 [glyburide]	–	–	–	–	–	–	–	2	3.63	1.59	3.8	125 ± 51.5
